Measurements taken from the NIST ThermoML archive (doi:10.1021/je3010535).
“And” between values parts separate entries of the source, which are not always exact repeats. Identical values can stand only once. ± gives the expanded uncertainty stated by the source.

What was measured:
[1] = Henry's Law constant (molality scale); of the first substance listed, at infinite dilution; mn = molality of the nth substance listed, in mol/kg; conditions: Liquid, Chromatography, m1 = 0
[2] = Henry's Law constant (molality scale); of the first substance listed, at infinite dilution; xn = mol fraction of the nth substance listed; conditions: Liquid, Chromatography, x1 = 0

SMILES	Henry's Law constant ([1]; 274.15 K)	Henry's Law constant ([1]; 294.65 K)	Henry's Law constant ([1]; 296.15 K)	Henry's Law constant ([1]; 331.15 K)	Henry's Law constant ([1]; 310.15 K)	Henry's Law constant ([2]; 274.15 K)	Henry's Law constant ([2]; 294.65 K)	Henry's Law constant ([2]; 296.15 K)	Henry's Law constant ([2]; 310.15 K)	Henry's Law constant ([2]; 320.15 K)	Henry's Law constant ([2]; 331.15 K)	Henry's Law constant ([2]; 313.15 K)	Henry's Law constant ([2]; 326.15 K)	also measured
Cc1cccc(C)c1 [1,3-dimethylbenzene] + O	147 ± 59 kPa·kg/mol	381 kPa·kg/mol and 439 kPa·kg/mol	457 ± 180 kPa·kg/mol	1810 ± 730 kPa·kg/mol										Henry's Law constant ([1]; 313.15 K): 1170 ± 470 kPa·kg/mol; Henry's Law constant ([1]; 326.15 K): 2090 ± 840 kPa·kg/mol
Cc1ccc(C)c(C)c1 [1,2,4-trimethylbenzene] + O	82.9 ± 33 kPa·kg/mol	235 kPa·kg/mol and 255 kPa·kg/mol	292 ± 120 kPa·kg/mol	1390 ± 550 kPa·kg/mol	497 ± 200 kPa·kg/mol									Henry's Law constant ([1]; 313.15 K): 974 ± 390 kPa·kg/mol; Henry's Law constant ([1]; 326.15 K): 1770 ± 710 kPa·kg/mol
ClCCCCl [1,3-dichloropropane] + O	18.8 ± 5.6 kPa·kg/mol	65 kPa·kg/mol and 65.9 kPa·kg/mol	70.6 ± 21 kPa·kg/mol	421 ± 130 kPa·kg/mol	156 ± 47 kPa·kg/mol									Henry's Law constant ([1]; 320.15 K): 287 ± 86 kPa·kg/mol
Cc1ccccc1 [toluene] + O	164 ± 49 kPa·kg/mol	459 kPa·kg/mol and 470 kPa·kg/mol	489 ± 150 kPa·kg/mol	3030 ± 910 kPa·kg/mol	316 ± 95 kPa·kg/mol									Henry's Law constant ([1]; 313.15 K): 982 ± 290 kPa·kg/mol; Henry's Law constant ([1]; 326.15 K): 1840 ± 550 kPa·kg/mol
Clc1ccc(Cl)cc1 [1,4-dichlorobenzene] + O	52.8 ± 21 kPa·kg/mol	136 kPa·kg/mol and 149 kPa·kg/mol	160 ± 64 kPa·kg/mol	686 ± 270 kPa·kg/mol	263 ± 110 kPa·kg/mol									Henry's Law constant ([1]; 313.15 K): 476 ± 190 kPa·kg/mol; Henry's Law constant ([1]; 320.15 K): 451 ± 180 kPa·kg/mol; Henry's Law constant ([1]; 326.15 K): 804 ± 320 kPa·kg/mol
CC(C)c1ccccc1 [isopropylbenzene] + O	212 ± 64 kPa·kg/mol	536 kPa·kg/mol and 588 kPa·kg/mol	622 ± 190 kPa·kg/mol	3130 ± 940 kPa·kg/mol	1380 ± 410 kPa·kg/mol									Henry's Law constant ([1]; 313.15 K): 1960 ± 590 kPa·kg/mol; Henry's Law constant ([1]; 326.15 K): 3260 ± 980 kPa·kg/mol
Cl/C=C\CCl [(Z)-1,3-dichloro-1-propene] + O	25.3 ± 7.6 kPa·kg/mol	87.5 kPa·kg/mol and 89.1 kPa·kg/mol	94.4 ± 28 kPa·kg/mol	657 ± 200 kPa·kg/mol	202 ± 61 kPa·kg/mol									Henry's Law constant ([1]; 320.15 K): 386 ± 120 kPa·kg/mol
C=C(C)C(=O)OC [methyl methacrylate] + O						2.57 ± 0.77 kPa·kg/mol	24.2 kPa·kg/mol and 12.7 kPa·kg/mol	24.5 ± 7.4 kPa·kg/mol	85.1 ± 26 kPa·kg/mol	132 ± 40 kPa·kg/mol	250 ± 75 kPa·kg/mol			
C=C(Cl)Cl [1,1-dichloroethene] + O						787 ± 240 kPa·kg/mol						4460 ± 1300 kPa·kg/mol	10500 ± 3200 kPa·kg/mol	
Cc1ccccc1Cl [2-chlorotoluene] + O						90.4 ± 36 kPa·kg/mol	248 kPa·kg/mol and 316 kPa·kg/mol	356 ± 140 kPa·kg/mol	503 ± 200 kPa·kg/mol	533 ± 210 kPa·kg/mol	1040 ± 420 kPa·kg/mol	890 ± 360 kPa·kg/mol	1280 ± 510 kPa·kg/mol	
COCCO [2-methoxyethan-1-ol] + O														Henry's Law constant ([2]; 298.15 K): 0.223 ± 0.067 kPa·kg/mol; Henry's Law constant ([2]; 311.15 K): 0.665 ± 0.2 kPa·kg/mol; Henry's Law constant ([2]; 332.15 K): 3.28 ± 0.98 kPa·kg/mol
FC(F)(Cl)C(F)(Cl)Cl [1,1,2-trichloro-1,2,2-trifluoroethane] + O						1070 ± 320 kPa·kg/mol						16800 ± 5000 kPa·kg/mol	20100 ± 6000 kPa·kg/mol	
CCCc1ccccc1 [propylbenzene] + O						182 kPa·kg/mol		505 kPa·kg/mol	412 kPa·kg/mol		1920 kPa·kg/mol	1900 kPa·kg/mol	3160 kPa·kg/mol	
CCC(C)=O [butanone] + O						0.416 ± 0.12 kPa·kg/mol	1.72 kPa·kg/mol and 2.37 kPa·kg/mol	2.62 ± 0.79 kPa·kg/mol	8.13 ± 2.4 kPa·kg/mol	15.3 ± 4.6 kPa·kg/mol	43.9 ± 13 kPa·kg/mol			Henry's Law constant ([2]; 333.15 K): 62 ± 19 kPa·kg/mol
CCCCOCCO [2-butoxyethan-1-ol] + O														Henry's Law constant ([2]; 298.15 K): 0.269 ± 0.081 kPa·kg/mol; Henry's Law constant ([2]; 311.15 K): 0.904 ± 0.27 kPa·kg/mol; Henry's Law constant ([2]; 332.15 K): 4.27 ± 1.3 kPa·kg/mol
Cc1cccc2ccccc12 [1-methylnaphthalene] + O						3.74 ± 1.1 kPa·kg/mol	23.4 kPa·kg/mol and 13.3 kPa·kg/mol	27.8 ± 8.3 kPa·kg/mol	74 ± 22 kPa·kg/mol	87.9 ± 26 kPa·kg/mol	153 ± 46 kPa·kg/mol			Henry's Law constant ([2]; 333.15 K): 150 ± 45 kPa·kg/mol
ClCC(Br)CBr (stereo not drawn) [1,2-dibromo-3-chloropropane] + O						1.28 ± 0.38 kPa·kg/mol	7.76 kPa·kg/mol and 9.37 kPa·kg/mol	11.8 ± 3.5 kPa·kg/mol	28.1 ± 8.4 kPa·kg/mol	49.7 ± 15 kPa·kg/mol	101 ± 30 kPa·kg/mol			Henry's Law constant ([2]; 333.15 K): 133 ± 40 kPa·kg/mol
CI [iodomethane] + O						251 ± 75 kPa·kg/mol						814 ± 240 kPa·kg/mol	1560 ± 470 kPa·kg/mol	
Cc1ccc2ccccc2c1 [2-methylnaphthalene] + O						4.91 ± 1.5 kPa·kg/mol	31.4 kPa·kg/mol and 16.6 kPa·kg/mol	35 ± 10 kPa·kg/mol	84.4 ± 25 kPa·kg/mol	106 ± 32 kPa·kg/mol	169 ± 51 kPa·kg/mol			Henry's Law constant ([2]; 333.15 K): 166 ± 50 kPa·kg/mol
C=CCl [chloroethene] + O						1140 ± 340 kPa·kg/mol						4200 ± 1300 kPa·kg/mol	6500 ± 1900 kPa·kg/mol	
